# From patent US12527833B2, “Pharmaceutical composition made from hydrophobic phytochemicals dispersed in sesame oil to enhance bioactivity” (ARJUNA NATURAL PVT. LTD., priority 2017, dated 2026)
# Columns and labels:
# Format in all cases: in vivo
# [1] = system: Carrageenan induced paw oedema; test: Carrageenan paw oedema in rats: Boswellia extract, sesame oil and their combinations (Example 8)
# Experimental: The animals were housed in polypropylene cages and maintained under standard animal house conditions (12:12 hour light/dark cycle at 24±2° C. and 45-65% relative humidity). The rats had free access to standard pellet diet and water. […] were divided into 9 groups comprising of 3 rats in each group. The rats were deprived of food, but had free access to drinking water for 12 h prior to the experiment. The treatment was as follows: • Group 1: Untreated control. • Group 2: 10 mg/Kg Diclofenac. • Group 3: 20 mg/Kg Hydrophobic Boswellia extract with 2% AKBA (made as per example 2). • Group 4: 20 mg/Kg Hydrophobic Boswellia extract with 10% AKBA (made as per example 1). • Group 5: 30 mg/Kg Sesame seed oil about 0.9% sesame lignans. • Group 6: 50 mg/Kg Simple blend of Boswellia extract with 2% AKBA with Sesame seed oil with 10% sesame lignans (made as per example 6; using AKBA2). • Group 7: 50 mg/Kg Homogenized dispersion of hydrophobic Boswellia extract with 2% AKBA with sesame oil with 10% sesame lignans. (Made as per example 4). • Group 8: 50 mg/Kg Simple hydrophobic Boswellia extract with 10% AKBA with sesame oil with 10% sesame lignans. (Made as per example 6, F1). • Group 9: 50 mg/Kg Homogenized dispersion hydrophobic Boswellia extract with 10% AKBA with sesame oil with 10% sesame lignans. (Made as per example 4). After 12 hour fasting, baseline paw volume was recorded for each rat using digital plethysmometer (Ugo Basile, […]). Carrageenan (0.1 ml of 1%) in saline (0.9% NaCl) was injected into the plantar surface of the right hind paw of the animals. The experimental groups were given the designated extract/standard orally, 30 minutes prior to the injection of the carrageenan. […] The oedema was expressed as an increase in the volume of paw from baseline value, and the percentage of inhibition for each rat was calculated.
# [2] = system: Carrageenan induced paw edema; test: Carrageenan paw edema in rats: blends of Boswellia extract with edible oils (Example 7)
# Experimental: The animals were housed in polypropylene cages and maintained under standard animal house conditions (12:12 hour light/dark cycle at 24±2° C. and 45-65% relative humidity). The rats had free access to standard pellet diet and water. 24 rats were divided into 8 groups comprising of 3 rats in each group. The rats were deprived of food, but had free access to drinking water for 12 h prior to the experiment. The treatment was as follows: After 12 hour fasting, baseline paw volume was recorded for each rat using digital plethysmometer (Ugo Basile, […]). Carrageenan (0.1 ml of 1%) in saline (0.9% NaCl) was injected into the plantar surface of the right hind paw of the animals. The experimental groups were given the designated extract/standard orally, 30 minutes prior to the injection of the carrageenan. After injection of carrageenan, paw volume was recorded at 3 hr. to 6 hr. post carrageenan. The edema was expressed as an increase in the volume of paw from baseline value, and the percentage of inhibition for each rat was calculated. Each composition of boswellia was obtained through standard mixing of boswellia extract with vegetable oil. • Group 1: 10 mg/Kg Diclofenac. • Group 2: 82 mg/Kg Hydrophobic blend of Boswellia extract (10% AKBA) with sesame oil (2:3). • Group 3: 82 mg/Kg Hydrophobic Boswellia extract (10% AKBA) with coconut oil (2:3). • Group 4: 82 mg/Kg Hydrophobic Boswellia extract (10% AKBA) with olive oil (2:3). • Group 5: 82 mg/Kg Hydrophobic Boswellia extract (10% AKBA) with rice bran (2:3). • Group 6: 82 mg/Kg Hydrophobic Boswellia extract (10% AKBA) with Cotton seed oil (2:3). • Group 7: 82 mg/Kg Hydrophobic Boswellia extract (10% AKBA) with Boswellia fat (2:3). • Group 8: 50 mg/Kg Homogenized dispersion hydrophobic Boswellia extract with 10% AKBA with sesame oil with 10% sesame lignans. (BS-4).
# [3] = system: Carrageenan induced paw edema; test: Carrageenan paw edema in rats: Boswellia dispersion at different SSA values (Example 9)
# Experimental: The animals were housed in polypropylene cages and maintained under standard animal house conditions (12:12 hour light/dark cycle at 24±2° C. and 45-65% relative humidity). The rats had free access to standard pellet diet and water. 15 rats were divided into 5 groups comprising of 3 rats in each group. The rats were deprived of food, but had free access to drinking water for 12 h prior to the experiment. The treatment was as follows: After 12 hour fasting, baseline paw volume was recorded for each rat using digital plethysmometer (Ugo Basile, […]). Carrageenan (0.1 ml of 1%) in saline (0.9% NaCl) was injected into the plantar surface of the right hind paw of the animals. The experimental groups were given the designated extract/standard orally, 30 minutes prior to the injection of the carrageenan. After injection of carrageenan, paw volume was recorded at 3 hr to 6 hr post carrageenan. The edema was expressed as an increase in the volume of paw from baseline value, and the percentage of inhibition for each rat was calculated. • Group 1: 50 mg/Kg BS-1 (SSA 200-500 m^2/kg). • Group 2: 50 mg/Kg, BS-2 (SSA 700-1000 m^2/kg) • Group 3: 50 mg/Kg BS-3 (SSA 1100-1200 m^2/kg) • Group 4: 50 mg/Kg BS-4 (SSA>1300 m^2/kg) • Group 5: 10 mg/Kg Diclofenac.
smiles,measurement,setting,value
O=C(O)Cc1ccccc1Nc1c(Cl)cccc1Cl [Diclofenac],percentage inhibition 1 h,"[1]; 1 h post carrageenan, oral, dose per group 10-50 mg/Kg",64%
same,percentage inhibition 3 h,"[1]; 3 h post carrageenan, oral, dose per group 10-50 mg/Kg",84%
same,percentage inhibition 5 h,"[1]; 5 h post carrageenan, oral, dose per group 10-50 mg/Kg",93%
same,percentage inhibition 6 h,"[1]; 6 h post carrageenan, oral, dose per group 10-50 mg/Kg",97%
same,Average percentage inhibition,"[1]; average of 1, 3, 5, 6 h",85%
same,Avrage percentage inhibition,"[2]; average of 3HR and 6HR, doses as in table",68.3%
same,Percentage inhibition (%) 3HR,"[2]; paw edema 3 hr post carrageenan, oral 30 min before, Diclofenac 10, oil blends 82, BS-4 50 mg/kg",66.67%
same,Percentage inhibition (%) 6HR,"[2]; paw edema 6 hr post carrageenan, oral 30 min before, Diclofenac 10, oil blends 82, BS-4 50 mg/kg",69.94%
same,Percentage inhibition (%) 3HR,"[3]; 3 hr post carrageenan, oral, BS samples 50 mg/kg, Diclofenac 10 mg/kg",68%
same,Percentage inhibition (%) 6HR,"[3]; 6 hr post carrageenan, oral, BS samples 50 mg/kg, Diclofenac 10 mg/kg",94%
same,Avrage percentage inhibition,[3]; average of 3HR and 6HR,81%
